Source: article PMC5238433 (Scientific Reports, 2017)
Entries after “also recorded” stand apart in the source; their conditions may differ. No end group written: not given here.

Legend:
[1] = test system: human α-adrenergic 2 A receptors; conditions: CHO-K1 cells expressing human α-adrenergic 2 A receptors (Gαi coupled), 0.15 to 333 nM, xCELLigence; ref not given ("Recent studies"); cited from earlier work
Excerpt: Recent studies used the xCELLigence system to monitor activation of endogenous GPCRs. […] Here, we also ...

[2] = test system: angiotensin-converting enzyme 2 (ACE2); conditions: cited from earlier work
Excerpt: The apelin receptor (APJ) is a member of the family A of G-protein-coupled receptors (GPCRs) and is involved in range of physiological and pathological functions including fluid homeostasis, anxiety, and depression, as well as cardiovascular and metabolic disorders. APJ was first identified as an orphan GPCR with closest identity to the angiotensin II (Ang II) receptor. In 1998, the peptide apelin was isolated from bovine stomach extracts as the endogenous ligand of APJ.

CHO-K1 cells = test system: CHO-K1 cells; design: method as in not given ("Recent studies"); conditions: serum-deprived CHO-K1 cells, 5 pM to 5 μM, xCELLigence; ref not given ("Recent studies"); cited from earlier work
APJ homodimer = test: MALDI-TOF MS of immunoprecipitated APJ complex after treatment with HIV TAT-TMD interference peptides; assay type: binding, human; conditions: peptide 4 μM, 60 min, 37 °C
Excerpt: TMDs are important for the formation of head-to-head interfaces in class A GPCR dimers. To identify dimerization interfaces in the seven TMDs of APJ, the effects of cell-penetrating interference peptides (containing the sequence of the hydrophobic transmembrane helices) on APJ homodimerization were examined by MS.
Figure 5 The effects of interference peptides on apelin receptor (APJ) homodimerization as measured by matrix assisted laser desorption […] time-of-flight (MALDI-TOF) mass spectrometry.
The identity of the TMD peptide sequences was analyzed with liquid chromatography (LC)-MS.
MS was performed to identity APJ dimer interfaces in samples treated with TMD peptides. Cells were transfected with APJ and, 48 h later, treated with or without the indicated HIV TAT-TMD fused peptides (4 μM) for 60 min at 37 °C. Extracted proteins were immunoprecipitated using an anti-APJ antibody. Protein A/G PLUS-agarose beads were incubated with proteins for 2 h and washed four times with lysis buffer. The APJ complex was eluted from beads as described previously. Then, the endogenous APJ complex was analyzed with an AXIMA matrix-assisted laser desorption/ionization time-of-flight (MALDI-TOF) system (Shimazdu) in linear positive mode. The mass range was 4–10 kDa and the matrix was Sinapic Acid (SA), 10 mg/ml (50% acetonitrile (ACN), 50% H2O, 0.1% […] (TFA)). The results were calibrated with a Shimadzu MALDI calibration kit (Laser BioLabs).

[3] = test system: human umbilical vein endothelial cells (HUVECs); test: xCELLigence RTCA, apelin-13-induced cellular response (cell index) with or without interference peptide; assay type: cell-based; conditions: TMD1 4 μM with apelin-13 10 μM, 0.1 μM or 1 nM; average of quadruplicates
Protocol: All curves were plotted as the average of quadruplicate treatments, with error bars shown as SEM.
A background step (step 1) was performed before other experimental steps. The background step was performed with each well of the E-Plate 16 containing only culture media (100 μl/well) for 30 min at 37 °C, prior to the addition of 10000 HUVECs per well (100 μl/well). […] The schedule settings were as follows (RTCA Software 2.0): […]

[4] = test system: APJ dimer (APJ-Rluc / APJ-EGFP); test: BRET, effect of interference peptides on APJ homodimers; assay type: cell-based, human
Excerpt: Figure 7 The effect of interference peptides on apelin receptor (APJ) dimers. […] BRET[1] was detected as described above.

[5] = test system: APJ homodimers (APJ-Rluc / APJ-EGFP); test: BRET, effect of agonist/antagonist treatment on APJ homodimerization; assay type: cell-based, human; conditions: CHO cells co-expressing APJ-Rluc and APJ-EGFP (1:1); concentration not given; four independent experiments in triplicate
Protocol: We further assessed APJ interactions by co-immunoprecipitation (Co-IP), BRET[1], and Förster resonance energy transfer (FRET). […] BRET studies were performed to confirm APJ homodimerization.
Figure 2 Assessment of apelin receptor (APJ) dimerization using co-immunoprecipitation (Co-IP) and bioluminescence resonance energy transfer (BRET) assays. (A) Assessment of APJ homodimerization with Co-IP. Chinese hamster ovary (CHO) cells were either not transfected (mock) or transfected with HA-APJ, Myc-APJ, or both (co-transfection). HA-APJ and Myc-APJ were also mixed (mix). Immunoprecipitated samples were resolved by SDS-PAGE and immunoblotted with an anti-Myc antibody (upper panel). […] (B) Assessment of APJ homodimerization with BRET[1]. (C) BRET saturation curves. (D) Assessment of effects of agonist-treatment on dimerization by BRET[1]. For BRET, four independent experiments were performed with triplicate samples and the results were expressed as the mean ± SEM of four experiments ([…] versus control group; NS, not significant versus unstimulated cells).
To monitor constitutive APJ interactions, CHO cells were transfected with APJ-Rluc and APJ-EGFP plasmids at a ratio of 1:1, 1:2, 1:3, 1:4, 1:5, and 1:6 to express a constant amount of donor-labeled protein with increasing amounts of acceptor-labeled protein. At 24 h post-transfection, cells were trypsinized and plated on a 96 well microplate for 24 h in HEPES-buffered phenol red-free medium (Invitrogen, Life Technologies). Coelenterazine h (5 μM; Promega) was added for BRET measurements using a Tristar LB941 plate reader (Berthold) with an Rluc filter (400–475 nm) and a EGFP filter (500–550 nm). To monitor the induced interactions of APJ, BRET signals were measured as described above, with slight modifications. […] To measure the effects of interference peptides on APJ dimers, CHO cells were co-transfected with APJ-Rluc and APJ-EGFP (1:3) and incubated with interference peptides corresponding to TMD1, TMD2, TMD3, TMD4, TMD5, TMD6, and TMD7 at 37 °C (4 μM), and BRET[1] detected as described above.

[6] = test system: APJ oligomers (APJ-Rluc, APJ-VN173, APJ-VC155); test: BiFC-BRET, effect of agonist/antagonist treatment on APJ oligomerization; assay type: cell-based, human; conditions: CHO cells co-expressing APJ-Rluc, concentration not given, four independent experiments in triplicate
Protocol: Additionally, BiFC-BRET assays were performed to detect APJ oligomerization in living cells. Two non-fluorescent fragments (pCE-BiFC-VN173 and pCE-BiFC-VC155) of Venus fluorescent protein were separately fused to APJ (APJ-VN173 and APJ-VC155) (Fig. 4A). CHO cells were then co-transfected with APJ-Rluc, APJ-VN173, and APJ-VC155 and observed with TIRFM.
Figure 4 Assessment of apelin receptor (APJ) oligomerization with bioluminescence resonance energy transfer - bimolecular fluorescence complementation (BiFC-BRET). (A) Principle of BiFC-BRET. The assay examines the formation of functional Venus by the complementation of protein fragments fused to APJ. Association of APJ enables formation of a bimolecular fluorescent complex. If all three tagged APJ proteins interact, BRET can occur. (B) TIRFM detection of APJ dimers (yellow particles) after BiFC. (C) Assessment of APJ oligomerization with BiFC-BRET. (D) Assessment of agonist-induced oligomerization.

Brc1c(NC2=NCCN2)ccc2nccnc12 [UK14,304]
cell index response [1]: induces a dose-dependent increase in CI

apelin
hydrolysis by ACE2 [2]: high catalytic efficiency

calcitonin: stimulating serum-deprived CHO-K1 cells with calcitonin (CGNLSTCMLGTYTQDFNKFHTFPQTAIGVGAP; ends and bridges not checked; cysteine pairing not given here; UniProt P01258 85-116, looked up)
cell index response (CHO-K1 cells): a transient agonist-induced increase in CI lasting up to a few hours

PAIYMLVFLLGTTGNGLVLWTVFYGRKKRRQRRR [TMD1, HIV TAT-fused interference peptide derived from human APJ transmembrane domain 1]
species detected by MALDI-TOF MS / effect of peptide on APJ homodimerization (APJ homodimer; cells transfected with APJ, anti-APJ immunoprecipitation, MALDI-TOF linear positive mode, mass range 4–10 kDa, sinapic acid): TMD1 dimers, TMD1 tetramers, APJ, [APJ + TMD1], APJ dimers, and [APJ + TMD1] dimers were detected
binding to APJ (peptides encoding TMDs, MS) (APJ homodimer; MALDI-TOF): can bind to APJ
HUVEC cell index (CI), interference peptide with apelin-13 [3]: led to a decreasing trend in the CI compared to that before treatment
effect on APJ dimer BRET signals ([4]; CHO cells, APJ-Rluc:APJ-EGFP 1:3, peptide 4 μM, 37 °C, four independent experiments in triplicate): significantly reduced APJ dimer BRET signals
reduction of APJ dimer BRET signals ([4]; CHO cells, APJ-Rluc:APJ-EGFP 1:3, peptide 4 μM, 37 °C, four independent experiments in triplicate, P < 0.01, one range for TMD1, 2, 3 and 4): 55–75%
disruption of APJ (homo)dimerization (statement in words) ([4]; interference peptides 4 μM, in vitro, by BRET and MS): disrupted APJ dimerization; also recorded: can effectively disrupt the formation of APJ homodimers; also recorded: disrupted APJ homodimerization in vitro

apelin-17
BRET signal versus unstimulated cells (APJ homodimer formation) [5]: not significantly different to those of unstimulated cells
BRET ratio versus unstimulated cells (APJ oligomerization, BiFC-BRET) [6]: the same as that of unstimulated cells
